Experimental data published in US20240140991A1, “ANTIBIOTIC NATURAL PRODUCT ANALOGUES” (THE QUEEN'S UNIVERSITY OF BELFAST, priority 2021, published 2024).
In brackets after ≈: the same amount, converted by molar mass. Positions of bridges follow the written chain, without caps; N, C: chain ends. Non-standard residues stand in square brackets, D forms with d. Residues, ends and D or L forms follow the SMILES beside them. ξ: configuration not given here. *: point of attachment. Octanoyl(7-Me) = CC(C)CCCCCC(=O)*; Hexanoyl(4ξ-Me) = CCC(C)CCC(=O)*; dOrn = NCCC[C@@H](N)C(=O)O; Octanoyl = CCCCCCCC(=O)*; Orn = NCCC[C@H](N)C(=O)O; Dap = NC[C@H](N)C(=O)O; Alloc = C=CCOC(=O)*; OAll = C=CCO*

System: Escherichia coli ATCC 25922
Assay type: cell-based
Conditions: ATCC 25922
Protocol: Minimum inhibitory concentration (MIC) was determined by broth microdilution according to CLSI guidelines. Blood agar plates were inoculated with glycerol stocks of Escherichia coli ATCC 25922, E. coli ATCC 25922 MCR-1, E. coli MCR-1 (clinical isolate from Utrecht Medical Center, NL), E. coli EQAS MCR-2 (clinical isolate from Wageningen University and Research, NL), Kiebsielia pneumoniae ATCC 11228, K. pneumoniae ATCC 13883, K. pneumonia 2048 (clinical isolate from Vrije Universiteit Amsterdam Medical Center, NL), K. pneumonia JS-123 (clinical isolate from Utrecht Medical Center, NL), Acinetobacter baumannii ATCC 17961, A. baumannil ATCC 17978, A. baumannii 2018-006 (clinical isolate from Rijksinstituut voor Volksgezondheid en Milieu, NL), A. baumannii MDR (clinical isolate from Vrije Universiteit Amsterdam Medical Center, NL), Pseudomonas aeruginosa ATCC 27853, P. aeruginosa PAO1, P. aeruginosa NRZ-03961 (Reference strain from Das Nationale Referenzzentrum für gramnegative Krankenhauserreger, DE), P. aeruginosa M-120 (clinical isolate from Leiden University Medical Center, NL) and Staphylococcus aureus USA300 (clinical isolate from Texas Children's Hospitalm, USA). E. coli 25922 MCR1 was grown on LB agar supplemented with kanamycin. The inoculated agar plates were then incubated for 16 hours at 37° C. Individually grown colonies were subsequently used to inoculate 3 mL aliquots of TSB that were then incubated at 37° C. with shaking at 220 rpm. In parallel, the compounds to be assessed were serially diluted with Mueller-Hinton broth (MHB) in polypropylene 96-well plates (50 μL in each well). Once the OD600 of the bacterial suspensions reached 0.5, the bacteria were diluted with MHB (final concentration 2×10^5 CFU mL^−1) and added to the microplates containing the test compounds (50 μL to each well, final volume: 100 μL). The well-plates were sealed with an adhesive membrane and after 16 hours of incubation at 37° C. with shaking at 220 rpm the wells were visually inspected for bacterial growth. MIC values were defined as the lowest concentration of the compound that prevented visible growth of bacteria.

`CC[C@H](C)[C@H](NC(=O)[C@@H](NC(=O)[C@H](Cc1c[nH]c2ccccc12)NC(=O)[C@@H](CCCN)NC(=O)CNC(=O)[C@H](CCCN)NC(=O)[C@@H](CCCN)NC(=O)[C@@H](Cc1c[nH]c2ccccc12)NC(=O)[C@@H](Cc1ccc(O)cc1)NC(=O)[C@@H](CO)NC(=O)CCCCCC(C)C)[C@@H](C)O)C(=O)N[C@@H](CC(N)=O)C(=O)NCC(=O)NCC(N)=O` [Thr (linear laterocidine)] ({Octanoyl(7-Me)}-[dS][dY][dW][dOrn][Orn]G[dOrn]WTINGG-NH2; N-terminus and C-terminus assumed) and `CC[C@H](C)[C@H](NC(=O)[C@H](C)NC(=O)[C@H](Cc1c[nH]c2ccccc12)NC(=O)[C@@H](CCCN)NC(=O)CNC(=O)[C@H](CCCN)NC(=O)[C@@H](CCCN)NC(=O)[C@@H](Cc1c[nH]c2ccccc12)NC(=O)[C@@H](Cc1ccc(O)cc1)NC(=O)[C@@H](CO)NC(=O)CCCCCC(C)C)C(=O)N[C@@H](CC(N)=O)C(=O)NCC(=O)NCC(N)=O` [Ala9 (Thr→Ala), FA-sywoOGoWAINGG-CONH2] ({Octanoyl(7-Me)}-[dS][dY][dW][dOrn][Orn]G[dOrn]WAINGG-NH2) are the same in “Minimum inhibitory concentration (MIC)” value: 2 µg/mL (≈ 1.23 µM) for the first, 2 µg/mL (≈ 1.26 µM) for the second.

`CC[C@H](C)[C@H](NC(=O)[C@@H](NC(=O)[C@H](Cc1c[nH]c2ccccc12)NC(=O)[C@@H](CCCN)NC(=O)[C@H](C)NC(=O)[C@H](CCCN)NC(=O)[C@@H](CCCN)NC(=O)[C@@H](Cc1c[nH]c2ccccc12)NC(=O)[C@@H](Cc1ccc(O)cc1)NC(=O)[C@@H](CO)NC(=O)CCCCCC(C)C)[C@@H](C)O)C(=O)N[C@@H](CC(N)=O)C(=O)NCC(=O)NCC(N)=O` [Ala6 (Gly→Ala), FA-sywoOAoWTINGG-CONH2] ({Octanoyl(7-Me)}-[dS][dY][dW][dOrn][Orn]A[dOrn]WTINGG-NH2) and `CC[C@H](C)[C@H](NC(=O)[C@@H](NC(=O)[C@H](Cc1c[nH]c2ccccc12)NC(=O)[C@@H](CCCN)NC(=O)CNC(=O)[C@H](CCCN)NC(=O)[C@@H](CCCN)NC(=O)[C@@H](Cc1c[nH]c2ccccc12)NC(=O)[C@@H](Cc1ccc(O)cc1)NC(=O)[C@@H](C)NC(=O)CCCCCC(C)C)[C@@H](C)O)C(=O)N[C@@H](CC(N)=O)C(=O)NCC(=O)NCC(N)=O` [Ala1 (D-Ser→D-Ala), FA-aywoOGoWTINGG-CONH2] ({Octanoyl(7-Me)}-[dA][dY][dW][dOrn][Orn]G[dOrn]WTINGG-NH2) fall in the same range of “Minimum inhibitory concentration (MIC)” value: 4 to 8 µg/mL for the first, 4 to 8 µg/mL for the second.

`CC[C@H](C)[C@H](NC(=O)[C@H](CO)NC(=O)[C@H](Cc1c[nH]c2ccccc12)NC(=O)[C@@H](CCCN)NC(=O)CNC(=O)[C@H](CCCN)NC(=O)[C@@H](CCCN)NC(=O)[C@@H](Cc1c[nH]c2ccccc12)NC(=O)[C@@H](Cc1ccc(O)cc1)NC(=O)[C@@H](CO)NC(=O)CCCCCC(C)C)C(=O)N[C@@H](CC(N)=O)C(=O)NCC(N)=O` [ΔG13-Ser9-isoC9] ({Octanoyl(7-Me)}-[dS][dY][dW][dOrn][Orn]G[dOrn]WSING-NH2) and `CC[C@H](C)[C@H](NC(=O)[C@H](CO)NC(=O)[C@H](Cc1c[nH]c2ccccc12)NC(=O)[C@@H](CCCN)NC(=O)CNC(=O)[C@H](CCCN)NC(=O)[C@@H](CCCN)NC(=O)[C@@H](Cc1c[nH]c2ccccc12)NC(=O)[C@@H](Cc1ccc(O)cc1)NC(=O)[C@@H](CO)NC(=O)CCCCCC(C)C)C(=O)N[C@@H](CC(N)=O)C(N)=O` [ΔG12-G13-Ser9-isoC9] ({Octanoyl(7-Me)}-[dS][dY][dW][dOrn][Orn]G[dOrn]WSIN-NH2) are the same in “Minimum inhibitory concentration (MIC)” value: 4 µg/mL (≈ 2.58 µM) for the first, 4 µg/mL (≈ 2.68 µM) for the second.

Compared with `CC(C)CCCCCC(=O)N[C@H](CO)C(=O)N[C@H](Cc1ccc(O)cc1)C(=O)N[C@H](Cc1c[nH]c2ccccc12)C(=O)N[C@H](CCCN)C(=O)N[C@@H](CCCN)C(=O)NCC(=O)N[C@H](CCCN)C(=O)N[C@@H](Cc1c[nH]c2ccccc12)C(=O)N[C@H](C(=O)N[C@@H](C)C(=O)N[C@@H](CC(N)=O)C(=O)NCC(=O)NCC(N)=O)[C@@H](C)O` [Ala10 (Ile→Ala), FA-sywoOGoWTANGG-CONH2] ({Octanoyl(7-Me)}-[dS][dY][dW][dOrn][Orn]G[dOrn]WTANGG-NH2), `C=CCOC(=O)NC[C@H](NC(=O)[C@H](Cc1c[nH]c2ccccc12)NC(=O)[C@@H](CCCN)NC(=O)CNC(=O)[C@H](CCCN)NC(=O)[C@@H](CCCN)NC(=O)[C@@H](Cc1c[nH]c2ccccc12)NC(=O)[C@@H](Cc1ccc(O)cc1)NC(=O)[C@@H](CO)NC(=O)CCCCCC(C)C)C(=O)N[C@H](C(=O)N[C@@H](CC(N)=O)C(=O)NCC(=O)NCC(N)=O)[C@@H](C)CC` [Dap(Alloc)9-CONH2] ({Octanoyl(7-Me)}-[dS][dY][dW][dOrn][Orn]G[dOrn]W[Dap](Alloc)INGG-NH2) is 8-fold lower in “Minimum inhibitory concentration (MIC)” value: 16 µg/mL (≈ 10.1 µM) for the first, 2 µg/mL (≈ 1.18 µM) for the second.

Going from `CCC(C)CCC(=O)N[C@H](CO)C(=O)N[C@H](Cc1ccc(O)cc1)C(=O)N[C@H](Cc1c[nH]c2ccccc12)C(=O)N[C@H](CCCN)C(=O)N[C@@H](CCCN)C(=O)NCC(=O)N[C@H](CCCN)C(=O)N[C@@H](Cc1c[nH]c2ccccc12)C(=O)N[C@@H]1C(=O)N[C@@H]([C@@H](C)CC)C(=O)NCC(=O)N[C@H](CO)C(=O)N[C@@H](C)C(=O)O[C@@H]1C` (stereo partly drawn) [Compound R6] ({Hexanoyl(4ξ-Me)}-[dS][dY][dW][dOrn][Orn]G[dOrn]WTIG[dS]A; ester 9-C; N-terminus assumed) to `CCC(C)CCC(=O)N[C@H](CO)C(=O)N[C@H](Cc1ccc(O)cc1)C(=O)N[C@H](Cc1c[nH]c2ccccc12)C(=O)N[C@H](CCCN)C(=O)N[C@@H](CCCN)C(=O)NCC(=O)N[C@H](CCCN)C(=O)N[C@@H](Cc1c[nH]c2ccccc12)C(=O)N[C@@H]1C(=O)N[C@@H]([C@@H](C)CC)C(=O)NCC(=O)N[C@@H](CO)C(=O)N[C@@H](C)C(=O)O[C@@H]1C` (stereo partly drawn) [Compound R5] ({Hexanoyl(4ξ-Me)}-[dS][dY][dW][dOrn][Orn]G[dOrn]WTIGSA; ester 9-C; N-terminus assumed), the “Minimum inhibitory concentration (MIC)” value rises from 1 µg/mL (≈ 0.639 µM) to 2 µg/mL (≈ 1.28 µM) (2-fold).

First: CC[C@H](C)[C@H](NC(=O)[C@@H](NC(=O)[C@H](Cc1c[nH]c2ccccc12)NC(=O)[C@@H](CCCN)NC(=O)CNC(=O)[C@H](CCCN)NC(=O)[C@@H](CCCN)NC(=O)[C@@H](Cc1c[nH]c2ccccc12)NC(=O)[C@@H](C)NC(=O)[C@@H](CO)NC(=O)CCCCCC(C)C)[C@@H](C)O)C(=O)N[C@@H](CC(N)=O)C(=O)NCC(=O)NCC(N)=O [Ala2 (D-Tyr→D-Ala), FA-sawoOGoWTINGG-CONH2] ({Octanoyl(7-Me)}-[dS][dA][dW][dOrn][Orn]G[dOrn]WTINGG-NH2)
Second: CC[C@H](C)[C@H](NC(=O)[C@@H](NC(=O)[C@H](Cc1c[nH]c2ccccc12)NC(=O)[C@@H](CCCN)NC(=O)CNC(=O)[C@H](CCCN)NC(=O)[C@@H](CCCN)NC(=O)[C@@H](Cc1c[nH]c2ccccc12)NC(=O)[C@@H](Cc1ccc(O)cc1)NC(=O)[C@@H](CO)NC(=O)CCCCCC(C)C)[C@@H](C)O)C(=O)N[C@@H](CC(N)=O)C(N)=O [ΔG12-G13, FA-sywoOGoWTIN-CONH2] ({Octanoyl(7-Me)}-[dS][dY][dW][dOrn][Orn]G[dOrn]WTIN-NH2)
The “Minimum inhibitory concentration (MIC)” value of the first is higher: 8 to 16 µg/mL for the first, 4 µg/mL (≈ 2.65 µM) for the second.

`CCCCCCCC(=O)N[C@H](CO)C(=O)N[C@H](Cc1ccc(O)cc1)C(=O)N[C@H](Cc1c[nH]c2ccccc12)C(=O)N[C@H](CCCN)C(=O)N[C@@H](CCCN)C(=O)NCC(=O)N[C@H](CCCN)C(=O)N[C@@H](Cc1c[nH]c2ccccc12)C(=O)N[C@@H](CO)C(=O)N[C@H](C(=O)N[C@@H](CC(N)=O)C(N)=O)[C@@H](C)CC` [ΔG12-G13-Ser9-C8] (Octanoyl-[dS][dY][dW][dOrn][Orn]G[dOrn]WSIN-NH2) and `CC[C@H](C)[C@H](NC(=O)[C@H](Cc1c[nH]c2ccccc12)NC(=O)[C@H](Cc1c[nH]c2ccccc12)NC(=O)[C@@H](CCCN)NC(=O)CNC(=O)[C@H](CCCN)NC(=O)[C@@H](CCCN)NC(=O)[C@@H](Cc1c[nH]c2ccccc12)NC(=O)[C@@H](Cc1ccc(O)cc1)NC(=O)[C@@H](CO)NC(=O)CCCCCC(C)C)C(=O)N[C@@H](CC(N)=O)C(=O)NCC(=O)NCC(N)=O` [Trp9-CONH2] ({Octanoyl(7-Me)}-[dS][dY][dW][dOrn][Orn]G[dOrn]WWINGG-NH2) are the same in “Minimum inhibitory concentration (MIC)” value: 4 µg/mL (≈ 2.7 µM) for the first, 4 µg/mL (≈ 2.34 µM) for the second.

With `C=CCOC(=O)CNC(=O)CNC(=O)[C@H](CC(N)=O)NC(=O)[C@@H](NC(=O)[C@H](CNC(=O)OCC=C)NC(=O)[C@H](Cc1c[nH]c2ccccc12)NC(=O)[C@@H](CCCN)NC(=O)CNC(=O)[C@H](CCCN)NC(=O)[C@@H](CCCN)NC(=O)[C@@H](Cc1c[nH]c2ccccc12)NC(=O)[C@@H](Cc1ccc(O)cc1)NC(=O)[C@@H](CO)NC(=O)CCCCCC(C)C)[C@@H](C)CC` [Dap(Alloc)9-COOAll] ({Octanoyl(7-Me)}-[dS][dY][dW][dOrn][Orn]G[dOrn]W[Dap](Alloc)INGG-OAll) the “Minimum inhibitory concentration (MIC)” value was 2 µg/mL (≈ 1.15 µM).
